Measured values published in patent US20090042874A1, “ANTIDEPRESSANT HETEROARYL DERIVATIVES OF HETEROCYCLE-FUSED BENZODIOXANS” (WYETH, priority 2007, published 2009).
Where a name gives a salt, the structure may show the parent alone.

How the values were obtained:
serotonin transporter = molecular target: T1, serotonin transporter (Rattus norvegicus, UniProt P31652); assay: Displacement of 3H-paroxetine from male rat frontal cortical membranes (serotonin transporter affinity); assay type: binding; settings: 3H-paroxetine displacement, read-out: 5-HT Transporter Affinity Ki
T1 construct: displace ^3H-paroxetine from male rat frontal cortical membranes; from tissue; host or cells: male rat frontal cortex membranes
T1 sequence (P31652 whole entry): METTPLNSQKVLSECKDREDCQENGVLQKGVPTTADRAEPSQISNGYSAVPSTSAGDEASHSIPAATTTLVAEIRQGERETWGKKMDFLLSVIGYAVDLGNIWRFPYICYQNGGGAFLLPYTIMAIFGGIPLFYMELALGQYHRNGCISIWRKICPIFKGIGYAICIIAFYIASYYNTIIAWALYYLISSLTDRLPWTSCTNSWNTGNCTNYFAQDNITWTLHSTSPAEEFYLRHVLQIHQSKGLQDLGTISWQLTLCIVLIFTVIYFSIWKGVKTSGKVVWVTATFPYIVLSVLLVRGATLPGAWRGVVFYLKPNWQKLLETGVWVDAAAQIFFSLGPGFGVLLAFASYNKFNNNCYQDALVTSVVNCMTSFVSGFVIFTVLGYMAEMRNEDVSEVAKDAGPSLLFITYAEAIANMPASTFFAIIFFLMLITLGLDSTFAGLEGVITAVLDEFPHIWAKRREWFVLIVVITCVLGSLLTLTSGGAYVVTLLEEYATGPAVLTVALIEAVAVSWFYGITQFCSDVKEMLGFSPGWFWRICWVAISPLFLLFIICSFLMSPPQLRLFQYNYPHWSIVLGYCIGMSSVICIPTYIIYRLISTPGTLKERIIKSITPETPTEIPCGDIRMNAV
Text: Affinity of Compounds of the Invention for the Serotonin Transporter

human 5HT1A receptors = molecular target: T2, human 5HT1A receptors (Homo sapiens, UniProt P08908); assay: Displacement of [3H] 8-OH-DPAT from 5HT1A receptor, CHO cells stably transfected with human 5HT1A receptors; assay type: binding; settings: [3H] 8-OH-DPAT displacement, CHO cells with human 5HT1A; read-out: 5HT1A Receptor Affinity Ki
T2 construct: expressed in transfected cells; host or cells: CHO cells
T2 sequence (P08908 1-422): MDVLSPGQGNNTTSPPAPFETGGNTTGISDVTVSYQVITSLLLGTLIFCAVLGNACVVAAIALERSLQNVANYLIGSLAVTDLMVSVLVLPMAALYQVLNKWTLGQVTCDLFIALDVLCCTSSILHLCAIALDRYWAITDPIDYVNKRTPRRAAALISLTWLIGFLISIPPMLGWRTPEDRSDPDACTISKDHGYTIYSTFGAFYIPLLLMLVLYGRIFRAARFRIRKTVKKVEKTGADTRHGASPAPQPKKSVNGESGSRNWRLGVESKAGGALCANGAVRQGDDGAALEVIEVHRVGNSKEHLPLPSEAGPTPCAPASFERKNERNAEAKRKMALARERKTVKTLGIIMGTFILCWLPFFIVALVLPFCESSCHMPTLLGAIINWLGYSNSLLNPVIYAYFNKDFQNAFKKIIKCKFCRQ
Text: High affinity for the serotonin 5HT1A receptor was established by testing the claimed compound's ability to displace [^3H] 8-OH-DPAT (dipropylamino-tetralin) from the 5HT1A serotonin receptor following a modification of the procedure of Hall et al., J. Neurochem. 44, 1685 (1985) which utilizes CHO cells stably transfected with human 5HT1A receptors.

| SMILES | Ki (serotonin transporter) | Ki (human 5HT1A receptors) |
| --- | --- | --- |
| Cc1ccc2c3c(ccc2n1)OC[C@H](CNC1CCN(c2ccc4c(c2)NC(=O)CO4)CC1)O3 [Example 18, 6-(4-{[(8-methyl-2,3-dihydro[1,4]dioxino[2,3-f]quinolin-2-yl)methyl]amino}piperidin-1-yl)-2H-1,4-benzoxazin-3(4H)-one dihydrochloride salt] | 35.2 nM | 0.93 nM |
| Cc1ccc2c3c(ccc2n1)OC[C@H](CN1CCC(Oc2ccc4c(c2)NC(=O)CC4)CC1)O3 [Example 17, 7-[(1-{[(2S)-8-Methyl-2,3-dihydro[1,4]dioxino[2,3-f]quinolin-2-yl]methyl}piperidin-4-yl)oxy]-3,4-dihydroquinolin-2(1H)-one dihydrochloride salt] | 38.1 nM | 0.28 nM |
| Cc1ccc2c3c(ccc2n1)OC[C@H](CNCCCOc1ccc2c(c1)NC(=O)CO2)O3 [Example 7, 6-[3-({[(2S)-8-Methyl-2,3-dihydro[1,4]dioxino[2,3-f]quinolin-2-yl]methyl}amino)propoxy]-2H-1,4-benzoxazin-3(4H)-one dihydrochloride salt] | – | 0.1 nM |
| Cc1ccc2c3c(ccc2n1)OC[C@H](CN1CCC(Cc2ccc4c(c2)N(C)C(=O)CO4)CC1)O3 [Example 12, 4-Methyl-6-[(1-{[(2S)-8-methyl-2,3-dihydro[1,4]dioxino[2,3-f]quinolin-2-yl]methyl}piperidin-4-yl)methyl]-2H-1,4-benzoxazin-3(4H)-one dihydrochloride salt] | 6.65 nM | 0.29 nM |
| Cc1ccc2c3c(ccc2n1)OC[C@H](CN1CCC(CCc2ccc4c(c2)NC(=O)CO4)CC1)O3 [Example 14, 6-[2-(1-{[(2S)-8-Methyl-2,3-dihydro[1,4]dioxino[2,3-f]quinolin-2-yl]methyl}piperidin-4-yl)ethyl]-2H-1,4-benzoxazin-3(4H)-one dihydrochloride salt] | 2.66 nM | 0.59 nM |
| Cc1ccc2c3c(ccc2n1)OC[C@H](CN1CC[C@@H](Oc2ccc4c(c2)NC(=O)CO4)C1)O3 [Example 9, 6-{[(3R)-1-{[(2S)-8-Methyl-2,3-dihydro[1,4]dioxino[2,3-f]quinolin-2-yl]methyl}pyrrolidin-3-yl]oxy}-2H-1,4-benzoxazin-3(4H)-one dihydrochloride salt] | 4.5 nM | 3.53 nM |
| Cc1ccc2c3c(ccc2n1)OC[C@H](CN1CCC(CCc2ccc4c(c2)N(C)C(=O)CO4)CC1)O3 [Example 13, 4-Methyl-6-[2-(1-{[(2S)-8-methyl-2,3-dihydro[1,4]dioxino[2,3-f]quinolin-2-yl]methyl}piperidin-4-yl)ethyl]-2H-1,4-benzoxazin-3(4H)-one dihydrochloride salt] | 13.9 nM | 0.63 nM |
| Cc1ccc2c3c(ccc2n1)OC[C@H](CN1CCC(Oc2ccc4c(c2)N(C)C(=O)CO4)CC1)O3 [Example 5, 4-Methyl-6-[(1-{[(2S)-8-methyl-2,3-dihydro[1,4]dioxino[2,3-f]quinolin-2-yl]methyl}piperidin-4-yl)oxy]-2H-1,4-benzoxazin-3(4H)-one dihydrochloride salt] | 11 nM | 0.54 nM |
| Cc1ccc2c3c(ccc2n1)OC[C@H](CN1CCC(Cc2ccc4c(c2)NC(=O)CO4)CC1)O3 [Example 2, 6-[(1-{[(2S)-8-Methyl-2,3-dihydro[1,4]dioxino[2,3-f]quinolin-2-yl]methyl}piperidin-4-yl)methyl]-2H-1,4-benzoxazin-3(4H)-one dihydrochloride] | 8.9 nM | 0.16 nM |
| Cc1ccc2c3c(ccc2n1)OC[C@H](CN1CC[C@H](Oc2ccc4c(c2)NC(=O)CO4)C1)O3 [Example 8, 6-{[(3S)-1-{[(2S)-8-Methyl-2,3-dihydro[1,4]dioxino[2,3-f]quinolin-2-yl]methyl}pyrrolidin-3-yl]oxy}-2H-1,4-benzoxazin-3(4H)-one dihydrochloride salt] | 18.2 nM | 1.49 nM |
